# Experimental data: US20080300135A1, “5-Alkyl-7-Amino-6-Heteroaryl-1,2,4-Triazolo[1,5-A]Pyrimidine Compounds and Their Use for Controlling Harmful Fungi” (BASF Aktiengesellschaft, priority 2005, published 2008)
# How the values were obtained:
# Pyricularia oryzae = type: cell-based; conditions: 125 ppm, day 7 after inoculation, absorption 405 nm, control = 100%
# Puccinia recondita = assay: Curative activity against brown rust of wheat (greenhouse test); type: in vivo; conditions: 250 ppm, curative spray on wheat seedlings cv. Kanzler, 7 days; untreated control 90% infected
# Description: The active compounds were prepared separately as a stock solution with 25 mg of active compound which was made up to 10 ml with a mixture of acetone and/or DMSO and the emulsifier Uniperol® EL (wetting agent having emulsifying and dispersing action based on ethoxylated alkylphenols) in a solvent/emulsifier volume ratio of 99 to 1. The solution was then made up to 100 ml with water. This stock solution was diluted to the active compound concentration stated below using the solvent/emulsifier/water mixture described.
# Example No. 1—Curative activity against brown rust of wheat caused by Puccinia recondita
# Leaves of potted wheat seedlings of the cultivar “Kanzler” were inoculated with a spore suspension of brown rust (Puccinia recondita). The pots were then placed in a chamber with high atmospheric humidity (90 to 95%) and 20 to 22° C. for 24 hours. During this time, the spores germinated and the germ tubes penetrated into the leaf tissue. The next day, the infected plants were sprayed to runoff point with the above-described active compound solution at the active compound concentration stated below. After the spray coating had dried on, the test plants were cultivated in a greenhouse at temperatures between 20 and 22° C. and at 65 to 70% relative atmospheric humidity for 7 days. The extent of the rust fungus development on the leaves was then determined.
compound,measurement,setting,value
"Cc1cc(C)n(-c2c(C)nc3ncnn3c2N2CCC(C)CC2)n1 [Compound C-1, 6-(3,5-Dimethylpyrazol-1-yl)-5-methyl-7-(4-methylpiperidin-1-yl)-[1,2,4]-triazolo[1,5-a]pyrimidin]",relative growth,Pyricularia oryzae,0%
same,infection,Puccinia recondita,10%
